{"source": "patent US20250177370A1", "about": "“METHOD FOR ALLEVIATING UTERINE LEIOMYOMA USING NICOTINAMIDE” (TAIPEI MEDICAL UNIVERSITY, priority 2023, published 2025)", "key": {"[1]": {"test_system": "fibronectin", "experiment": "Western blotting of ECM protein fibronectin in ELT-3 cells", "format": "cell-based, rat", "settings": "72 hours, normalized to GAPDH, vs control group", "description": "(§1) First, the ELT-3 cells prepared in section 1 of “General Experimental Materials” were divided into 3 groups, including a control group, and two experimental groups (i.e., experimental groups 1 and 2). Each group of the ELT-3 cells was seeded at a concentration of 2×10^5 cells/well into a 10-cm Petri dish containing 2 mL of DMEM/F12 supplemented with 10% FBS and 1% penicillin-streptomycin, followed by cultivation in an incubator (37° C., 5% CO2) overnight.\n(§2) Next, medium change was performed by adding a fresh culture medium supplemented with 1% FBS into the 10-cm Petri dish, followed by cultivation in an incubator (37° C., 5% CO2) for 24 hours. […]\n(§3) After cultivation in an incubator (37° C., 5% CO2) for 72 hours, each of the cell cultures was mixed with 100 μL of a RIPA lysis buffer (BIOMAN, Cat. no. 20121701) containing protease inhibitor cocktail (Roche, Cat. no. 4693159001). […] The protein concentration in the total protein sample was determined using bicinchoninic acid (BCA) assay kit (T-Pro Biotechnology, Cat. no. JB04-D001) in accordance with the manufacturer's instructions. […]\n(§4) Subsequently, ImageJ software was used for semi-quantitatively calculating the corresponding protein expression level. […]\n(§5) The relative expression level was calculated using the following Equation (1): […]\n(§6) The data thus obtained were analyzed according to the procedures as described in section 1 of “General Procedures”."}, "[2]": {"test_system": "collagen type I alpha 1 chain (COL1A1)", "experiment": "Western blotting of COL1A1 in ELT-3 cells", "format": "cell-based, rat", "settings": "72 hours, normalized to GAPDH, vs control group", "description": "as §1, §2, §3, §4, §5, §6"}, "[3]": {"test_system": "alpha-smooth muscle actin (α-SMA)", "experiment": "Western blotting of α-SMA in ELT-3 cells", "format": "cell-based, rat", "settings": "72 hours, normalized to GAPDH, vs control group", "description": "as §1, §2, §3, §4, §5, §6"}, "[4]": {"test_system": "Eker rat uterine leiomyoma cell line ELT-3", "experiment": "Colony formation assay", "format": "cell-based", "settings": "ELT-3 cells, 3 days treatment then 7 to 10 days, vs control group, p<0.05", "description": "(§7) Eker rat uterine leiomyoma cell line ELT-3 was purchased from the American Type Culture Collection (ATCC, Manassas, Va., USA). The ELT-3 cells were grown in a 6 cm Petri dish containing Dulbecco's Modified Eagle's Medium (DMEM)/F12 [1:1 (v/v)] (Cassion, Cat. no. DFP29) supplemented with 10% fetal bovine serum (FBS, Corning Inc., Cat. no. 35-010-CV) and 1% antibiotic-antimycotic (Corning Inc., Cat. no. 30-004-CI). The ELT-3 cells were cultivated in an incubator at 37° C. with 5% CO2. Medium change was performed every two to three days. Cell passage was performed when the cultured cells reached 80% to 90% of confluence.\nFirst, the ELT-3 cells prepared in section 1 of “General Experimental Materials” were divided into 3 groups, including a control group, and two experimental groups (i.e., experimental groups 1 and 2). Each group of the ELT-3 cells was seeded at a concentration of 5×10^2 cells/well into a respective well of 6-well culture plates containing 2 mL of DMEM/F12 supplemented with 10% FBS and 1% penicillin-streptomycin, followed by cultivation in an incubator (37° C., 5% CO2) for 24 hours.\n(§8) Next, medium change was performed by adding a fresh culture medium supplemented with 1% FBS into the 6-well culture plate. […]\nas §6"}, "[5]": {"test_system": "primary melanocytes", "settings": "primary melanocytes with ultraviolet (UV) radiation-induced DNA damage; Thompson B. C. et al. (2014); cited from earlier work"}, "[6]": {"test_system": "Eker rat uterine leiomyoma cell line ELT-3", "experiment": "Crystal violet staining assay (area density, viable cells)", "format": "cell-based", "settings": "ELT-3 cells, 48 hours, vs control group, p<0.001", "description": "as §7\nFirst, the ELT-3 cells prepared in section 1 of “General Experimental Materials” were divided into 3 groups, including a control group, and two experimental groups (i.e., experimental groups 1 and 2). Each group of the ELT-3 cells was seeded at a concentration of 1×10^5 cells/well into a respective well of 6-well culture plates containing 2 mL of DMEM/F12 supplemented with 10% FBS and 1% penicillin-streptomycin, followed by cultivation in an incubator (37° C., 5% CO2) for 24 hours.\nas §8, §6"}, "[7]": {"settings": "20 mM nicotinamide (experimental group 1)"}, "[8]": {"settings": "50 mM nicotinamide (experimental group 2)"}}, "data": [{"compound": "NC(=O)c1cccnc1", "note": "[nicotinamide]", "values": [{"measurement": "relative expression level of fibronectin", "setting": "[1]; 20 mM nicotinamide", "result": "significantly decreased"}, {"measurement": "relative expression level of fibronectin", "setting": "[1]; 50 mM nicotinamide", "result": "significantly decreased"}, {"measurement": "relative expression level of COL1A1", "setting": "[2]; 20 mM nicotinamide", "result": "significantly decreased"}, {"measurement": "relative expression level of COL1A1", "setting": "[2]; 50 mM nicotinamide", "result": "significantly decreased"}, {"measurement": "relative expression level of α-SMA", "setting": "[3]; 20 mM nicotinamide", "result": "significantly decreased"}, {"measurement": "relative expression level of α-SMA", "setting": "[3]; 50 mM nicotinamide", "result": "significantly decreased"}, {"measurement": "colony density", "setting": "[4]; [7]", "result": "significant decrease"}, {"measurement": "colony density", "setting": "[4]; [8]", "result": "significant decrease"}, {"measurement": "DNA repair", "setting": "[5]", "result": "enhances DNA repair"}, {"measurement": "area density", "setting": "[6]; [7]", "result": "significant decrease"}, {"measurement": "area density", "setting": "[6]; [8]", "result": "significant decrease"}]}]}
